# Where a name gives a salt, the structure may show the parent alone.
# System: HeLa cells
# Test: CellTiter-Glo luminescent cell viability (cytotoxicity) assay
# Type: cell-based
# Details: 10 μM test compound, 48 hours, inhibition of luminescence compared to control cells, 10 µM
# Protocol: Cytotoxicity was assessed using Promega's CellTiter-Glo® luminescent cell viability assay (Promega Corporation, Madison, Wis., USA) as described in Promega Technical Bulletin TB288, revised August 2008. The assay was performed in HeLa cells at a maximum concentration tested of 10 μM of test compound. This assay measures the amount of adenosine triphosphate (ATP) present as a way of quantifying the presence and degree of metabolic activity in cell cultures.
# Viable Hela cells were plated at a density of 3000 cells/well in 96 wells in black, clear bottom plates. Cells were allowed to attach to the plate by incubating overnight at 37° C. Test compounds were diluted in DMSO then further diluted in 10% FBS media. Media was removed from the cell plates and 50 μL of the solution was added to each well manually with the exception of the control well, which contained the same volume of 10% FBS media which includes 1% DMSO. Cells were incubated in the presence of compound undisturbed for 48 hours at 37° C. After the 48 hour compound exposure, 50 μL of the pCellTiter Glo® reagent was added. The cell plates were agitated on a shaker for 2 minutes to help lyse the cells. The plate was covered and read for luminescence.
# Percent inhibition was calculated as follows: PCT_INHIB=100*[(U−T)/U] Where U represents the Luminescence of wells containing untreated cells and
# T represents the Luminescence of wells containing compound-treated cells
row,SMILES,Activity (PCT_INHIB @ 10 μM) [%]
1,"COc1ccc(Cl)c(CN(Cc2cccc(CN3C(C(=O)NC45CC6CC(CC(C6)C4)C5)CCS3(=O)=O)c2)[C@H](CN(C)C)CC(C)(C)C)c1F (single isomer, unassigned; epimer 1) [Example 33]",96
2,"COc1ccc(Cl)c(CN(Cc2cccc(CN3C(C(=O)NC45CC6CC(CC(C6)C4)C5)CCS3(=O)=O)c2)[C@H](CN(C)C)CC(C)(C)C)c1F (single isomer, unassigned; epimer 2) [Example 34]",97

# Same assay, conditions: Homo sapiens, HeLa, 48 h, 10 μM test compound, inhibition of luminescence compared to control cells, read-out: Activity (PCT_INHIB @ 10 μM)
row,SMILES,inhibition at 10 µM [%]
1,"C[C@@H]1[C@@H](NC(=O)C2CCS(=O)(=O)N2Cc2cccc(CN(Cc3cc(Cl)ccc3O)[C@H](CN(C)C)CC(C)(C)C)c2)C[C@H]2C[C@@H]1C2(C)C (stereo partly drawn) [Example 1, 2-(3-{[(5-Chloro-2-hydroxy-benzyl)-((S)-1-dimethylaminomethyl-3,3-dimethyl-butyl)-amino]-methyl}-benzyl)-1,1-dioxo-1λ^6-isothiazolidine-3-carboxylic acid((1S,2S,3S,5R)-2,6,6-trimethyl-bicyclo[3.1.1]hept-3-yl)-amide]",96
2,"C[C@@H]1[C@@H](NC(=O)C2CCS(=O)(=O)N2Cc2cccc(CN(Cc3ccccc3I)[C@H](CN(C)C)CC(C)(C)C)c2)C[C@H]2C[C@@H]1C2(C)C (stereo partly drawn) [Example 2, 2-(3-{[((S)-1-Dimethylaminomethyl-3,3-dimethyl-butyl)-(2-iodo-benzyl)-amino]-methyl}-benzyl)-1,1-dioxo-1λ^6-isothiazolidine-3-carboxylic acid((1S,2S,3S,5R)-2,6,6-trimethyl-bicyclo[3.1.1]hept-3-yl)-amide trifluoroacetate salt]",50
3,"CCOc1ccccc1CN(Cc1cccc(CN2C(C(=O)N[C@H]3C[C@H]4C[C@@H]([C@@H]3C)C4(C)C)CCS2(=O)=O)c1)[C@H](CN(C)C)CC(C)(C)C (stereo partly drawn) [Example 3, 2-(3-{[((S)-1-Dimethylaminomethyl-3,3-dimethyl-butyl)-(2-ethoxy-benzyl)-amino]methyl}-benzyl)-1,1-dioxo-1λ^6-isothiazolidine-3-carboxylic acid((1S,2S,3S,5R)-2,6,6-trimethyl-bicyclo[3.1.1]hept-3-yl)-amide trifluoroacetate salt]",69
4,"COc1ccc(C(C)C)cc1CN(Cc1cccc(CN2C(C(=O)N[C@H]3C[C@H]4C[C@@H]([C@@H]3C)C4(C)C)CCS2(=O)=O)c1)[C@H](CN(C)C)CC(C)(C)C (stereo partly drawn) [Example 4, 2-(3-{[((S)-1-Dimethylaminomethyl-3,3-dimethyl-butyl)-(5-isopropyl-2-methoxy-benzyl)-amino]-methyl}-benzyl)-1,1-1λ^6-isothiazolidine-3-carboxylic acid((1S,2S,3S,5R)-2,6,6-trimethyl-bicyclo[3.1.1]hept-3-yl)-amide trifluoroacetate salt]",96
5,"C[C@@H]1[C@@H](NC(=O)C2CCS(=O)(=O)N2Cc2cccc(CN(Cc3ccccc3OC(F)F)[C@H](CN(C)C)CC(C)(C)C)c2)C[C@H]2C[C@@H]1C2(C)C (stereo partly drawn) [Example 5, 2-(3-{[(2-Difluoromethoxy-benzyl)-((S)-1-dimethylaminomethyl-3,3-dimethyl-butyl)amino]-methyl}-benzyl)-1,1-dioxo-1λ^6-isothiazolidine-3-carboxylic acid((1S,2S,3S,5R)-2,6,6-trimethyl-bicyclo[3.1.1]hept-3-yl)-amide trifluoroacetate salt]",87
6,"C[C@@H]1[C@@H](NC(=O)C2CCS(=O)(=O)N2Cc2cccc(CN(Cc3ccccc3Oc3ccc(F)cc3)[C@H](CN(C)C)CC(C)(C)C)c2)C[C@H]2C[C@@H]1C2(C)C (stereo partly drawn) [Example 6, 2-[3-({((S)-1-Dimethylaminomethyl-3,3-dimethyl-butyl)-[2-(4-fluoro-phenoxy)-benzyl]-amino}-methyl)-benzyl]-1,1-dioxo-1λ^6-isothiazolidine-3-carboxylic acid((1S,2S,3S,5R)-2,6,6-trimethyl-bicyclo[3.1.1]hept-3-yl)-amide trifluoroacetate salt]",82
7,"Cc1ccc(Oc2ccccc2CN(Cc2cccc(CN3C(C(=O)N[C@H]4C[C@H]5C[C@@H]([C@@H]4C)C5(C)C)CCS3(=O)=O)c2)[C@H](CN(C)C)CC(C)(C)C)cc1 (stereo partly drawn) [Example 7, 2-(3-{[((S)-1-Dimethylaminomethyl-3,3-dimethyl-butyl)-(2-p-tolyloxy-benzyl)-amino]-methyl}-benzyl)-1,1-dioxo-1λ^6-isothiazolidine-3-carboxylic acid((1S,2S,3S,5R)-2,6,6-trimethyl-bicyclo[3.1.1]hept-3-yl)-amide trifluoroacetate salt]",58
8,"C[C@@H]1[C@@H](NC(=O)C2CCS(=O)(=O)N2Cc2cccc(CN(Cc3ccccc3-c3ccc(F)cc3)[C@H](CN(C)C)CC(C)(C)C)c2)C[C@H]2C[C@@H]1C2(C)C (stereo partly drawn) [Example 8, 2-(3-{[((S)-1-Dimethylaminomethyl-3,3-dimethyl-butyl)-(4′-fluoro-biphenyl-2 ylmethyl)-amino]-methyl}-benzyl)-1,1-dioxo-1λ^6-isothiazolidine-3-carboxylic acid((1S,2S,3S,5R)-2,6,6-trimethyl-bicyclo[3.1.1]hept-3-yl)-amide trifluoroacetate salt]",97
9,"Cc1ccc(CN(Cc2cccc(CN3C(C(=O)N[C@H]4C[C@H]5C[C@@H]([C@@H]4C)C5(C)C)CCS3(=O)=O)c2)[C@H](CN(C)C)CC(C)(C)C)c(O)c1 (stereo partly drawn) [Example 9, 2-(3-{[((S)-1-Dimethylaminomethyl-3,3-dimethyl-butyl)-(2-hydroxy-4-methylbenzyl)-amino]-methyl}-benzyl)-1,1-dioxo-1λ^6-isothiazolidine-3-carboxylic acid((1S,2S,3S,5R)-2,6,6-trimethyl-bicyclo[3.1.1]hept-3-yl)-amide trifluoroacetate salt]",96
10,"Cc1ccc(O)c(CN(Cc2cccc(CN3C(C(=O)N[C@H]4C[C@H]5C[C@@H]([C@@H]4C)C5(C)C)CCS3(=O)=O)c2)[C@H](CN(C)C)CC(C)(C)C)c1 (stereo partly drawn) [Example 10, 2-(3-{[((S)-1-Dimethylaminomethyl-3,3-dimethyl-butyl)-(2-hydroxy-5-methyl-benzyl)-amino]-methyl}-benzyl)-1,1-dioxo-1λ^6-isothiazolidine-3-carboxylic acid((1S,2S,3S,5R)-2,6,6-trimethyl-bicyclo[3.1.1]hept-3-yl)-amide trifluoroacetate salt]",96
11,"Cc1ccccc1-c1ccccc1CN(Cc1cccc(CN2C(C(=O)N[C@H]3C[C@H]4C[C@@H]([C@@H]3C)C4(C)C)CCS2(=O)=O)c1)[C@H](CN(C)C)CC(C)(C)C (stereo partly drawn) [Example 11, 2-(3-{[((S)-1-Dimethylaminomethyl-3,3-dimethyl-butyl)-(2′-methyl-biphenyl-2 ylmethyl)-amino]-methyl}-benzyl)-1,1-dioxo-1λ^6-isothiazolidine-3-carboxylic acid((1S,2S,3S,5R)-2,6,6-trimethyl-bicyclo[3.1.1]hept-3-yl)-amide trifluoroacetate salt]",97
12,"C[C@@H]1[C@@H](NC(=O)C2CCS(=O)(=O)N2Cc2cccc(CN(Cc3c(F)cccc3Oc3ccccc3)[C@H](CN(C)C)CC(C)(C)C)c2)C[C@H]2C[C@@H]1C2(C)C (stereo partly drawn) [Example 12, 2-(3-{[((S)-1-Dimethylaminomethyl-3,3-dimethyl-butyl)-(2-fluoro-6-phenoxy-benzyl)-amino]-methyl}-benzyl)-1,1-dioxo-1λ^6-isothiazolidine-3-carboxylic acid((1S,2S,3S,5R)-2,6,6-trimethyl-bicyclo[3.1.1]hept-3-yl)-amide trifluoroacetate salt]",96
13,"C[C@@H]1[C@@H](NC(=O)C2CCS(=O)(=O)N2Cc2cccc(CN(Cc3c(F)ccc(F)c3F)[C@H](CN(C)C)CC(C)(C)C)c2)C[C@H]2C[C@@H]1C2(C)C (stereo partly drawn) [Example 13, 2-(3-{[((S)-1-Dimethylaminomethyl-3,3-dimethyl-butyl)-(2,3,6-trifluoro-benzyl)-amino]-methyl}-benzyl)-1,1-dioxo-1λ^6-isothiazolidine-3-carboxylic acid((1S,2S,3S,5R)-2,6,6-trimethyl-bicyclo[3.1.1]hept-3-yl)-amide trifluoroacetate salt]",93
14,"COc1ccc(Br)c(CN(Cc2cccc(CN3C(C(=O)N[C@H]4C[C@H]5C[C@@H]([C@@H]4C)C5(C)C)CCS3(=O)=O)c2)[C@H](CN(C)C)CC(C)(C)C)c1O (stereo partly drawn) [Example 14, 2-(3-{[(6-Bromo-2-hydroxy-3-methoxy-benzyl)-((S)-1-dimethylaminomethyl-3,3-dimethyl-butyl)-amino]-methyl}-benzyl)-1,1-dioxo-1λ^6-isothiazolidine-3-carboxylic acid((1S,2S,3S,5R)-2,6,6-trimethyl-bicyclo[3.1.1]hept-3-yl)-amide trifluoroacetate salt]",75
15,"Cc1ccc(Cl)c(CN(Cc2cccc(CN3C(C(=O)N[C@H]4C[C@H]5C[C@@H]([C@@H]4C)C5(C)C)CCS3(=O)=O)c2)[C@H](CN(C)C)CC(C)(C)C)c1F (stereo partly drawn) [Example 15, 2-(3-{[(6-Chloro-2-fluoro-3-methyl-benzyl)-((S)-1-dimethylaminomethyl-3,3-dimethylbutyl)-amino]-methyl}-benzyl)-1,1-dioxo-1λ^6-isothiazolidine-3-carboxylic acid((1S,2S,3S,5R)-2,6,6-trimethyl-bicyclo[3.1.1]hept-3-yl)-amide trifluoroacetate salt]",91

# From US8314250B2, “Sultam derivatives” (Hoffmann-La Roche Inc., priority 2009, dated 2012)
